What was measured:
Fusobacterium species = experiment: Spectrum of antibacterial activity of GML; assay type: cell-based; settings: optimal growth conditions; 1 strain tested
Escherichia coli = experiment: Spectrum of antibacterial activity of GML; assay type: cell-based; settings: optimal growth conditions; 2 strains tested
[1] = system: Mycobacterium tuberculosis; assay type: cell-based
Pasteurella multocida = experiment: Spectrum of antibacterial activity of GML; assay type: cell-based; settings: optimal growth conditions; 1 strain tested
Bacillus cereus = experiment: Spectrum of antibacterial activity of GML; assay type: cell-based; settings: optimal growth conditions; 1 strain tested
Staphylococcus aureus = experiment: Spectrum of antibacterial activity of GML; assay type: cell-based; settings: optimal growth conditions; 54 strains tested
Enterococcus faecalis = experiment: Spectrum of antibacterial activity of GML; assay type: cell-based; settings: optimal growth conditions; 1 strain tested
[2] = system: non-typable Haemophilus influenzae; assay type: cell-based
[3] = system: coagulase-negative staphylococci; experiment: Decolonization of anterior nares; assay type: in vivo, human; settings: 5% w/v GML in non-aqueous gel
[4] = system: P. aeruginosa (strain PAO 1); experiment: Effect of pH on GML activity; assay type: cell-based, Pseudomonas aeruginosa; settings: GML 10 μg/mL to 5000 μg/mL, 24 hours
Method: The effect of GML at a range of concentrations and in the presence of a range of pH levels on the growth of Pseudomonas aeruginosa was also determined. P. aeruginosa (strain PAO 1) was inoculated in Todd Hewitt broth at 5.7×10^6/mL. GML was added to cultures at a range of concentrations from 10 μg/mL to 5000 μg/mL, and the pH was adjusted to 5.0, 6.0, or 7.0. CFU/mL was determined after 24 hours of incubation. […] A pH of 5.0 in the absence of GML was somewhat inhibitory for the growth of P. aeruginosa.

Streptococcus sanguinis = experiment: Spectrum of antibacterial activity of GML; assay type: cell-based; settings: optimal growth conditions; 1 strain tested
S. aureus MN8 = experiment: Antibacterial activity of GML after pre-treatment with sterile culture fluid; assay type: cell-based; settings: 24 hour assay
S. aureus strain MN8 = experiment: Decolonization of contaminated surgical incision sites; assay type: in vivo, New Zealand white rabbits; settings: GML 5% w/v non-aqueous gel swabbed
Mycobacterium phlei = experiment: Spectrum of antibacterial activity of GML; assay type: cell-based; settings: optimal growth conditions; 1 strain tested
Mycobacterial species = assay type: cell-based
[5] = system: Prevotella melaninogenica; experiment: Spectrum of antibacterial activity of GML; assay type: cell-based; settings: optimal growth conditions; 1 strain tested
S. aureus biofilm = experiment: Treatment of previously formed biofilms; assay type: cell-based; settings: 48 hour biofilm; 500 μg/mL GML for 60 minutes at 37° C.
[6] = system: Bacillus anthracis Sterne; assay type: cell-based; settings: optimal growth conditions; 1 strain tested
Streptococcus agalactiae = experiment: Spectrum of antibacterial activity of GML; assay type: cell-based; settings: optimal growth conditions; 3 strains tested
S. aureus = experiment: Decolonization of anterior nares; assay type: in vivo, human; settings: 5% w/v GML in non-aqueous gel
Method: A study was undertaken to assess the ability of GML (5% w/v), formulated in a non-aqueous gel, to decolonize the respiratory tract in humans, and to decolonize contaminated surgical incision sites in experimental rabbits.
Three human subjects underwent swabs of the anterior nares in order to assess whether GML was capable of decolonizing the respiratory tract. […] The swabs were rotated around each nare up to the nasal bone 3 times. Colony-forming units of microbes from swabs were determined by plate counts on blood agar and mannitol salt agar. The anterior nares were then treated in the same way with swabs that had been dipped one time in GML gel. The anterior nares of each participant were swabbed at designated time periods for up to 24 hours, and swabs were cultured for S. aureus and coagulase-negative staphylococci.

Campylobacter jejuni = experiment: Spectrum of antibacterial activity of GML; assay type: cell-based; settings: optimal growth conditions; 1 strain tested
S. pyogenes = experiment: Bactericidal activity of GML versus lauric acid; assay type: cell-based; settings: 24 hours, 37° C.
Shigella sonnei = assay type: cell-based

Substance: Glycerol monolaurate [GML]
- Average Bactericidal Concentration of GML (Fusobacterium species): 50 µg/mL
- Average Bactericidal Concentration of GML (Escherichia coli): Not Susceptible
- Average Bactericidal Concentration of GML [1]: 100 µg/mL
- Average Bactericidal Concentration of GML (Pasteurella multocida): 500 µg/mL
- Average Bactericidal Concentration of GML (Bacillus cereus): 50 µg/mL
- Average Bactericidal Concentration of GML (Staphylococcus aureus): 300 µg/mL
- Average Bactericidal Concentration of GML (Enterococcus faecalis): 100 µg/mL
- GML concentration inhibiting biofilm formation (crystal violet, absorbance 595 nm) [2]: ≤ 1.0 µg/mL
- bactericidal GML concentration in the context of a biofilm (CFU/mL) [2]: 50 µg/mL
- coagulase-negative staphylococcal counts in both nares after treatment ([3]; swab, three subjects, 4 hours or more up to 24 hour): significantly (p<0.05) reduced
- coagulase-negative staphylococci in right nare after 3 days ([3]; one subject, initially 560): 8 CFU/mL
- coagulase-negative staphylococci in left nare after 3 days ([3]; one subject, initially 880): 0 CFU/mL
- effect on growth (CFU/mL) ([4]; pH 5.0): further inhibited P. aeruginosa growth in a dose-dependent manner
- effect on growth (CFU/mL) ([4]; pH 6.0 or 7.0): no concentration of GML was inhibitory
- Average Bactericidal Concentration of GML (Streptococcus sanguinis): 50 µg/mL
- antibacterial activity of GML after pre-incubation (S. aureus MN8; pre-incubated overnight with sterile culture fluid from S. aureus MN8): eliminated the antibacterial activity
- antibacterial activity of GML after pre-incubation (S. aureus MN8; pre-incubated overnight with sterile culture fluid from S. pyogenes): did not affect
- S. aureus CFU/mL at surgical incision sites (S. aureus strain MN8; 24 hour time-point, PBS control 8.8 log CFU/mL): no CPUs were detectable
- inflammation at the surgical site (redness) (S. aureus strain MN8; 24 hours, versus PBS): less inflammation
- Average Bactericidal Concentration of GML (Mycobacterium phlei): 100 µg/mL
- GML concentration at which organisms were killed (Mycobacterial species): ≥ 50 µg/mL
- Average Bactericidal Concentration of GML [5]: 50 µg/mL
- bactericidal activity on previously formed biofilm (CFU/mL) (S. aureus biofilm): killed
- biofilm material attached to the wells (crystal violet staining) (S. aureus biofilm): nearly completely removed biofilm material
- Average Bactericidal Concentration of GML [6]: 50 µg/mL
- Average Bactericidal Concentration of GML (Streptococcus agalactiae): 30 µg/mL
- S. aureus counts in both nares after treatment (S. aureus; swab, three subjects, all time-points up to 24 hour): 0 CFU/mL
- S. aureus counts over 3 day test period (S. aureus; one subject): 0
- Average Bactericidal Concentration of GML (Campylobacter jejuni): 1 µg/mL
- fold more bactericidal for S. pyogenes than for S. aureus (S. pyogenes): 5 fold
- fold lower bactericidal concentration than lauric acid (S. pyogenes; 7% CO2, bactericidal = at least 3 log reduction): 500 fold
- Average Bactericidal Concentration of GML (Shigella sonnei): Not Susceptible

Reference: US12194140B2, “Compositions for topical treatment of microbial infections” (Hennepin Life Sciences, priority 2012, dated 2025)
